pKi: −log10 of the molar value.
How the values were obtained:
[1] = biological target: T1, purified human autoBACE-2 (Homo sapiens, UniProt Q9Y5Z0); assay: BACE-2 Assay (BACE-HTRF assay); assay type: biochemical; conditions: Ki calculated from IC50 using the Cheng-Prusoff equation; QSY7-EISEVNLDAEFC-Eu-amide substrate 200 nM final, pH 5.0, 30°C; read-out: BACE2 Ki
T1 sequence (Q9Y5Z0 63-473 limits assumed): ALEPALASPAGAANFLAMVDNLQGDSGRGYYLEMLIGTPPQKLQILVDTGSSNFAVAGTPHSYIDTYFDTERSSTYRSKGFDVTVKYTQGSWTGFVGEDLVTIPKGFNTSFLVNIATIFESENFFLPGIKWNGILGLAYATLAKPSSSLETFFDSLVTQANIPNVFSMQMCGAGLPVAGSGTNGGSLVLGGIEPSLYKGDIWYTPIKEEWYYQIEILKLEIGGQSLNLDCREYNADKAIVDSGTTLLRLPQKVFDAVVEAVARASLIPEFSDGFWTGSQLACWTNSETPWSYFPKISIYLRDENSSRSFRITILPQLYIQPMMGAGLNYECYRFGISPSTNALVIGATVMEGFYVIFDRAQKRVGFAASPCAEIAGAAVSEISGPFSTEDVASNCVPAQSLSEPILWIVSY
Procedure: Inhibitor IC50's at purified human autoBACE-2 are determined in a time-resolved endpoint proteolysis assay that measures hydrolysis of the QSY7-[…]-Eu-amide FRET peptide substrate (BACE-HTRF assay). […] Inhibitor compounds, prepared at 3x the desired final concentration in 1x BACE assay buffer (20 mM sodium acetate pH 5.0,10% glycerol, 0.1% Brij-35) supplemented with 7.5% DMSO are pre-incubated with an equal volume of autoBACE-2 enzyme diluted in 1x BACE assay buffer (final enzyme concentration 1 nM) in black 384-well NUNC plates for 30 minutes at 30°C. […] DMSO is present at 5% final concentration in the assay. Following laser excitation of sample wells at 320 nm, the fluorescence signal at 620 nm is collected for 400 ms following a 50 µs delay on a RUBYstar HTRF plate reader (BMG Labtechnologies). Raw RFU data is normalized to maximum (1.0 nM BACE/DMSO) and minimum (no enzyme/DMSO) RFU values. […] The Ki values are calculated from the IC50 using the Cheng-Prusoff equation.

[2] = biological target: soluble human BACE1 catalytic domain (Homo sapiens, UniProt P56817); assay: BACE1 HTRF FRET Assay; assay type: biochemical; conditions: Ki calculated from IC50 using the Cheng-Prusoff equation; QSY7-APPswe-Eu substrate 200 nM final, pH 5.0, 30° C
Sequence of soluble human BACE1 catalytic domain (P56817 75-416 limits assumed): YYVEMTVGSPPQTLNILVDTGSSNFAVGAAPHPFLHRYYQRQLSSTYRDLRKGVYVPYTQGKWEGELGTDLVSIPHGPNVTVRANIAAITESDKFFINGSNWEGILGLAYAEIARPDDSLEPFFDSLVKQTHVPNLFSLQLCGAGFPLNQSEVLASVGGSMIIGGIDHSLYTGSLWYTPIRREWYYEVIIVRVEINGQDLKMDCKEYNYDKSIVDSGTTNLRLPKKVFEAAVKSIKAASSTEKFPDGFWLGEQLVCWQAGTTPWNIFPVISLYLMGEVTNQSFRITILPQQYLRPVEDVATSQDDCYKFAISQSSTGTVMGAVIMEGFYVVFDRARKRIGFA
Procedure: A homogeneous time-resolved FRET assay can be used to determine IC50 values for inhibitors of the soluble human BACE1 catalytic domain. […] This substrate contains an N-terminal QSY7 moiety that serves as a quencher of the C-terminal Europium fluorophore (620nm Em). […] Inhibition of BACE1 cleavage of the QSY7-APP^swe-Eu substrate by inhibitors is manifested as a suppression of 620 nm fluorescence. […] The reactions are incubated at 30° C for 1.5 hours. The 620nm fluorescence is then read on a Rubystar HTRF plate reader (BMG Labtechnologies) using a 50 millisecond delay followed by a 400 millisecond acquisition time window. Inhibitor IC50 values are derived from non-linear regression analysis of concentration response curves.

SMILES | pKi [1] | pKi [2]
CCS(=O)(=O)N1CC[C@]2(C1)[C@@](C)(c1cc(NC(=O)c3ccc(OC)cn3)ccc1F)NC(=N)N(C)S2(=O)=O [Example 69] | 6.80 | 7.48
COc1ccc(C(=O)Nc2ccc(F)c([C@@]3(C)NC(=N)N(C)S(=O)(=O)[C@]34CCN(S(=O)(=O)CC(C)C)C4)c2)nc1 [Example 70] | 7.00 | 7.43
COc1ccc(C(=O)Nc2ccc(F)c([C@@]3(C)NC(=N)N(C)S(=O)(=O)[C@]34CCN(S(=O)(=O)c3ccc(F)cc3)C4)c2)nc1 [Example 71] | 7.52 | 7.62
COc1ccc(C(=O)Nc2ccc(F)c([C@@]3(C)NC(=N)N(C)S(=O)(=O)[C@]34CCN(S(=O)(=O)CC(F)(F)F)C4)c2)nc1 [Example 72] | 7.00 | 7.55
CN1C(=N)N[C@](C)(c2cc(NC(=O)c3ccc(F)cn3)ccc2F)[C@]2(CCN(S(=O)(=O)c3ccc(F)cc3)C2)S1(=O)=O [Example 73] | 8.00 | 8.52
CN1C(=N)N[C@](C)(c2cc(NC(=O)c3ccc(F)cn3)ccc2F)[C@]2(CCN(S(=O)(=O)CC(F)(F)F)C2)S1(=O)=O [Example 74] | 8.40 | 8.70
CN1C(=N)N[C@](C)(c2cc(NC(=O)c3ccc(F)cn3)ccc2F)[C@]2(CCN(S(C)(=O)=O)C2)S1(=O)=O [Example 75] | 8.15 | 8.40
CCS(=O)(=O)N1CC[C@@]2(C1)[C@@](C)(c1cc(NC(=O)c3ccc(F)cn3)ccc1F)NC(=N)N(C)S2(=O)=O [Example 76] | 8.40 | 8.70
CC(C)CS(=O)(=O)N1CC[C@@]2(C1)[C@@](C)(c1cc(NC(=O)c3ccc(F)cn3)ccc1F)NC(=N)N(C)S2(=O)=O [Example 77] | 8.52 | 8.70
CN1C(=N)N[C@](C)(c2cc(NC(=O)c3ccc(F)cn3)ccc2F)[C@]2(CCN(S(=O)(=O)c3ccccc3)C2)S1(=O)=O [Example 78] | 8.15 | 8.70
CN1C(=N)N[C@](C)(c2cc(NC(=O)c3ccc(F)cn3)ccc2F)[C@]2(CCN(S(=O)(=O)C3CC3)C2)S1(=O)=O [Example 79] | 8.70 | 9.00
CN1C(=N)N[C@](C)(c2cc(NC(=O)c3ccc(F)cn3)ccc2F)[C@]2(CCN(S(=O)(=O)Cc3cccnc3)C2)S1(=O)=O [Example 80] | 8.30 | 8.70
CN1C(=N)N[C@](C)(c2cc(NC(=O)c3ccc(F)cn3)ccc2F)[C@]2(CCN(S(=O)(=O)c3cn(C)cn3)C2)S1(=O)=O [Example 81] | 7.62 | 8.10
CN1C(=N)N[C@](C)(c2cc(NC(=O)c3ccc(F)cn3)ccc2F)[C@]2(CCN(S(=O)(=O)c3cn[nH]c3)C2)S1(=O)=O [Example 83] | 7.96 | 8.30
CN1C(=N)N[C@](C)(c2cc(NC(=O)c3ccc(F)cn3)ccc2F)[C@]2(CCN(S(=O)(=O)C3CCCC3)C2)S1(=O)=O [Example 84] | 8.70 | 8.70
CN1C(=N)N[C@](C)(c2cc(NC(=O)c3ccc(F)cn3)ccc2F)[C@@]2(CCN(S(=O)(=O)C3CCCC3)C2)S1(=O)=O [Example 85] | 7.43 | 7.39
CN1C(=N)N[C@](C)(c2cc(NC(=O)c3ccc(F)cn3)ccc2F)[C@@]2(CCN(S(C)(=O)=O)C2)S1(=O)=O [Example 88] | 7.27 | 7.47
CCS(=O)(=O)N1CC[C@]2(C1)[C@@](C)(c1cc(NC(=O)c3ccc(F)cn3)ccc1F)NC(=N)N(C)S2(=O)=O [Example 89] | 7.39 | 7.35
CC(C)CS(=O)(=O)N1CC[C@]2(C1)[C@@](C)(c1cc(NC(=O)c3ccc(F)cn3)ccc1F)NC(=N)N(C)S2(=O)=O [Example 90] | 7.54 | 7.32
CN1C(=N)N[C@](C)(c2cc(NC(=O)c3ccc(F)cn3)ccc2F)[C@@]2(CCN(S(=O)(=O)C3CC3)C2)S1(=O)=O [Example 92] | 7.54 | 7.39
CN1C(=N)N[C@](C)(c2cc(NC(=O)c3ccc(F)cn3)ccc2F)[C@@]2(CCN(S(=O)(=O)Cc3cccnc3)C2)S1(=O)=O [Example 93] | 7.70 | 7.55
CN1C(=N)N[C@](C)(c2cc(NC(=O)c3ccc(F)cn3)ccc2F)[C@@]2(CCN(S(=O)(=O)c3cn(C)cn3)C2)S1(=O)=O [Example 94] | 7.72 | 7.43
COCC(=O)Nc1ccc(F)c([C@@]2(C)NC(=N)N(C)S(=O)(=O)[C@@]23CCNC3)c1 [Example 97] | 6.11 | 5.98

Reference: EP2934149B1, “C6-AZASPIRO IMINOTHIADIAZINE DIOXIDES AS BACE INHIBITORS” (Merck Sharp & Dohme Corp., priority 2012, dated 2014)
